Columns and labels:
[1] = test system: Bacillus cereus; assay: MIC, serial dilution method (CLSI); format: cell-based; settings: 24 h, read-out: MIC
How it was run: (§1)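 Each determination was run twice. Bacteria, diluted 1:100 in Müller Hinton broth, were exposed to compound for 24 hours at 37° C without agitation, and the lowest concentration free of visible growth was recorded.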

[2] = test system: Salmonella enteritidis; assay: MIC, serial dilution method (CLSI); format: cell-based; settings: Salmonella enterica, ENTERITIDIS, 24 h; read-out: MIC
How it was run: as §1

[3] = test system: Streptococcus equi; assay: MIC, serial dilution method (CLSI); format: cell-based; settings: 24 h, read-out: MIC
How it was run: as §1

[4] = test system: Listeria monocytogenes; assay: MIC, serial dilution method (CLSI); format: cell-based; settings: 24 h, read-out: MIC
How it was run: as §1

[5] = test system: Staphylococus pseudintermedius; assay: MIC, serial dilution method (CLSI); format: cell-based, Staphylococcus pseudintermedius; settings: Staphylococcus pseudintermedius, 24 h; read-out: MIC
How it was run: as §1

[6] = test system: E. coli APEC O2; assay: MIC, serial dilution method (CLSI); format: cell-based, Escherichia coli; settings: Escherichia coli, APECO2, 24 h; read-out: MIC
How it was run: as §1

[7] = test system: E. faecalis; assay: MIC, serial dilution method (CLSI); format: cell-based, Enterococcus faecalis; settings: Enterococcus faecalis, 24 h; read-out: MIC
How it was run: as §1

[8] = test system: IPEC-J2 MDR1 cells; assay: Apical to basolateral transport across IPEC-J2 MDR1 cell monolayers; format: in vitro ADME
Experimental: To assess the permeability of the compounds, the apical to basolateral flux/permeability of different experimental compounds across monolayers of IPEC-J2 MDR1 cells seeded and cultured on Transwell supports was investigated.
The compounds were dissolved in ultra pure water (MilliQ) to a concentration of 1 mM and further diluted in HBSS supplemented with 0.05% BSA and 10 mM HEPES, pH 7.4 to a final concentration of 10 μM.
For transport experiments, IPEC-J2 cells were seeded onto to permeable supports (T12, Corning cci-3401) and cultured for 15-17 days. Culturemedium was changed every other day in both the apical and basolateral chamber. On the day of transport, the cells were equilibrated to ambient temperatures and the transepithelial electrical resistance (TEER) was measured across the cell monolayers. Subsequently, the cell layers were washed twice with HBSS and the TEER was measured again. The transport experiment was started by replacing the HBSS in the apical chamber with HBSS solutions of the four experimental compounds. Over a period of two hours samples of 100 μL where taken from the basolateral chamber at t=15, 30, 45, 60, 90 and 120 minutes. All samples were stored at −20° C. until analysis by means of HPLC-MS. All four compounds were tested in triplicate. After the transport study was stopped, the cell layers were washed twice with HBSS and the TEER was measured.

[9] = test system: S. aureus USA300; assay: MIC, serial dilution method (CLSI); format: cell-based, Staphylococcus aureus; settings: Staphylococcus aureus, USA300, 24 h; read-out: MIC
How it was run: as §1

[10] = test system: S. aureus CC398; assay: MIC, serial dilution method (CLSI); format: cell-based, Staphylococcus aureus; settings: Staphylococcus aureus, MRSA, 24 h; read-out: MIC
How it was run: as §1

[11] = test system: E. faecium; assay: MIC, serial dilution method (CLSI); format: cell-based, Enterococcus faecium; settings: Enterococcus faecium, 24 h; read-out: MIC
How it was run: as §1

[12] = test system: Cutibacterium acnes; assay: MIC and MBC determination; format: cell-based; settings: Multiresistant clinical isolate
Experimental: (§2) MBC-value defines the antibiotic activities by the lowest concentration of the compound needed to kill at least 99.9% of the bacteria, also known as minimum bactericidal concentration (MBC) value.
(§3) The MIC for each compound for each bacteria strain was determined by the serial dilution method following the CLSI guidelines (CLSI Clinical and Laboratory Standards Institute: Performance Standards for Antimicrobial Susceptibility Testing: […] M100-S25. Wayne, Pa., USA; 2015.) All compounds were diluted in autoclaved H2O and stored at 4° C. […] Bacterial inoculums were prepared by inoculating 9 ml of H2O with bacterial colonies from agar plate (Oxoid, Roskilde Denmark) supplemented with bovine blood to a final yield a final density of 10^8 colony forming unit (CFU)/mL using a Sensititre™ Nephelometer (Thermo Scientific, Roskilde, Denmark). These inoculums were each in diluted 1:100 in Müller Hinton (MH) broth (Sigma, Copenhagen, Denmark). From the diluted inoculums 100 μl was transferred to each well in a 96-well plate and mixed with the compound to be MIC determined. The plate was incubated for 24 hours at 37° C. (without shaking). The MIC value was determined as the lowest concentration in which no bacterial growth could be visually detected. All MIC determinations were done in duplicates. […] Since all derivatives are new, no control strains (with reference MIC values) were available.

[13] = test system: Staphylococcus epidermidis; assay: MIC and MBC determination; format: cell-based; settings: Multiresistant clinical isolate
Experimental: as §2, §3

[14] = test system: Staphylococcus aureus MRSA 43484; assay: Murine superficial MRSA skin infection model, topical treatment; format: in vivo; settings: 2%, topical twice daily for 3 days, day 4, Balb/C mice
Experimental: This experiment is conducted to assess the effect of topical treatment of the compounds against MRSA. Compound S43 was evaluated for efficacy against Staphylococcus aureus MRSA 43484 in an murine skin infection model.
Treatment was performed twice daily for 3 days and sampling of skin biopsies was performed the day after last treatment. Treatment with Fucidic acid was included as a positive control and treatment with vehicle was included as a negative control.
48 Balb/C female mice—18-22 g—Taconic, Denmark, Staphylococcus aureus MRSA43484, Test compound A at 1 and 2% formulations, Test compound B at 2% formulation, Fucidin, 0.9% saline (sterile, SSI), 0.9% saline/Triton-x (sterile, SSI), Sterile water (SSI), 5% Horse Blood Agar plates (SSI), MRSA Brilliance agar plates, Nurofen® Junior (20 mg/ml, Novartis), Zoletil mix/Torbugesic (SSI/QC-BIO), Dermal curette—Miltex 335710.
Approximately 1 hour before inoculation, mice were treated orally with 45 μl nurofen (20 mg ibuprofen/ml corresponding to approximately […]) as pain relief. The mice were anaesthetized with 0.15 ml s.c. of Zoletil mix. The fur was removed from a 2×3-cm area on the back of each mouse by use of an electric shaver. Next, a razor was used to remove all the hair and hereafter the outer most layer of the skin was scraped off with a dermal curette to obtain a 1 cm^2 superficial skin lesion. 10 μl inoculum containing approximately 10^7 CFU was spread on the lesion. After the applied inoculum had dried, the mouse was placed in the cage and kept in a warming cabinet until fully awake.
Topical treatment of was initiated the day after inoculation, Day 1. Mice were treated twice daily (9 a.m and 3 p.m.) for three days. A volume of 50 μl was spread on the inoculated skin area.
Colony counts in the skin lesions were determined on day 1 (start of treatment) and day 4 (the day after completed treatment). The mice were sacrificed day 1 and 4 according to Table 1. The affected skin area was removed by a pair of scissors and tweezers, and collected in a tube for Dispomixer with 1 ml saline. The skin sample was homogenized in a Dispomixer. Each sample was serial diluted in saline/Triton-x and 20-μl spots were applied on MRSA Brillince agar plates. All agar plates were incubated 20-48 hrs at 35° C.

Row | Compound | MIC [1] | MIC [2] | MIC [3] | MIC [4] | MIC [5] | MIC [6] | MIC [7] | permeability across IPEC-J2 MDR1 cell monolayers [8] | MIC [9] | MIC [10] | MIC [11] | MIC [12] | MIC [13] | MBC [12] | MBC [13] | reduction of the CFU levels compared to the vehicle control [14]
1 | CSc1ccc2c(c1)N(CCC1CCCC[N+]1(C)CCC(C)C)c1ccccc1S2.[Br-] (stereo not drawn) [Compound S27, 1-isopentyl-1-methyl-2-(2-(2-(methylthio)-10H-phenothiazin-10-yl)ethyl)piperidin-1-ium bromide] | 4 µg/mL | 128 µg/mL | 2 µg/mL | 2 µg/mL | 2 µg/mL | 128 µg/mL | 4 µg/mL | low | 2 µg/mL | 2 µg/mL | 4 µg/mL | – | – | – | – | –
2 | CC(=O)O[C@H]1C[C@@]2(C)[C@@H](C[C@@H](O)[C@H]3[C@@]4(C)CC[C@@H](O)[C@@H](C)[C@@H]4CC[C@@]32C)/C1=C(\CCC=C(C)C)C(=O)O [fucidic acid, reference compound] | – | – | – | – | – | – | – | – | – | – | – | – | – | – | – | 1.5 logo

Second part, led by results:

Row | MIC [1] | MIC [2] | MIC [3] | MIC [4] | MIC [5] | MIC [6] | MIC [7] | permeability across IPEC-J2 MDR1 cell monolayers [8] | MIC [9] | MIC [10] | MIC [11] | MIC [12] | MIC [13] | Compound | MBC [12] | MBC [13] | reduction of the CFU levels compared to the vehicle control [14]
3 | 2 µg/mL | 256 µg/mL | 2 µg/mL | 2 µg/mL | 2 µg/mL | 256 µg/mL | 8 µg/mL | low | 2 µg/mL | 4 µg/mL | 8 µg/mL | – | – | CC[N+]1(C)CCCCC1CCN1c2ccccc2Sc2ccc(SC)cc21.[Br-] (stereo not drawn) [Compound S25, 1-ethyl-1-methyl-2-(2-(2-(methylthio)-10H-phenothiazin-10-yl)ethyl)piperidin-1-ium bromide] | – | – | –
4 | 0.25 µg/mL | 64 µg/mL | 1 µg/mL | 0.25 µg/mL | 0.25 µg/mL | 64 µg/mL | 0.5 µg/mL | – | 0.5 µg/mL | 0.25 µg/mL | 0.25 µg/mL | 0.5 µg/mL | 0.25 µg/mL | CCCCCCCCCCCC[N+](C)(C)C(C)CN1c2ccccc2Sc2ccccc21.[Br-] (stereo not drawn) [Compound S18, N-(1-(10H-phenothiazin-10-yl)propan-2-yl)-N,N-dimethyldodecan-1-aminium bromide] | 0.5 µg/mL | 0.25 µg/mL | –
5 | 2 µg/mL | 64 µg/mL | 2 µg/mL | 2 µg/mL | 4 µg/mL | 64 µg/mL | 4 µg/mL | low | 2 µg/mL | 2 µg/mL | 2 µg/mL | – | – | CCCCC[N+]1(C)CCCCC1CCN1c2ccccc2Sc2ccc(SC)cc21.[Br-] (stereo not drawn) [Compound S28, 1-methyl-2-(2-(2-(methylthio)-10H-phenothiazin-10-yl)ethyl)-1-pentylpiperidin-1-ium bromide] | – | – | –
